Test results published in patent US20230346735A1, “Nutritional Composition Comprising Carnitine and Method for Treating or Preventing an Infection in a Mammal” (priority 2020, published 2023).
Marks after values point to notes of the source that are not given here.

Key:
catalase = assay: Antioxidant capacity: catalase in exercised rats; format: in vivo, rat; details: 6 weeks
Description: Fifty-six (56) Male Wistar rats that were 8-week old were obtained. The rats were reared at the temperature of 22 ± 2° C., the humidity of 55 ± 5%, and with a 12-hrs light-12-hrs dark cycle. All procedures involving rats were conducted in strict compliance with the relevant laws, the Animal Welfare Act, Public Health Services Policy, and guidelines established by the Institutional Animal Care and Use Committee of the Institute of the contracted University which completed the study.
(§1) After a week of the adaptation period, the rats were divided into eight equal groups containing seven rats each. The initial body weights of the rats were similar in all the groups (214.53 grams ± 4.67; P > 0.05).
(§2) Groups 1 and 2 were not subjected to an exercise routine. Groups 3-8 were subjected to an exercise regimen consisting of a week training period with an incremental exercise capacity described below. After the week training period the exercise regimen followed was each rat in Groups 3-8 were subjected to 6 weeks of running at 25 m/min during 45 min […]. […] These correspond to 0, 250, 500, 1000, 2000 and 4000 mg per day for humans, respectively.
The exercised rats were subjected to treadmill exercise on a motorized rodent treadmill (Commat Limited, Ankara, Turkey). The treadmill contained a stimulus grid at the back end of the treadmill giving an electric shock when the animal placed its paw on the grid. […] To eliminate the diurnal variations, all exercise tests were applied during the same time of the day. The week of training period was provided as pre-training practice for the animals to get familiar with the treadmill equipment and handling. In doing so, the rats in the exercise training groups were accustomed by treadmill exercise over 5 days such that: (i) 1st day, 10 m/min for 10 min, (ii) 2nd day, 20 m/min for 10 min, (iii) 3rd day, 25 m/min for 10 min, (iv) 4th day, 25 m/min for 20 min and (v) 5th day, 25 m/min for 30 min. After the training period, the rats in treadmill exercise groups ran on the treadmill 25 m/min for 45 min/ per day and five days per week for 6 weeks according to the protocol described by Sahin et al. Capsaicinoids Improve the Consequences of Physical Activity. Toxicol Rep. 2018;5:598-607, which is hereby incorporated by reference.
The exercise regimen was used to induce an inflammation and oxidative stress conditions. […] The results of malondialdehyde, superoxide dismutase, catalase, and glutathione peroxidase for each rat group are shown in TABLE 2.

ACE-1 = ACE-1 protein and mRNA in rat lung tissue; format: in vivo; details: exercised rats
Excerpt: as §1, §2
To determine the protein accumulation in the liver, muscle and lung samples, a Western Blotting test was used. Each of the tissue samples of the same group were pooled, homogenized, and sonicated in lysis buffer supplemented with 1X protease and phosphatase inhibitor cocktail (#5872, Cell Signaling). Total protein content was detected with Qubit 2.0 Fluorometer according to the manufacturer’s protocol (Invitrogen, Life Technologies Corporation, Carlsbad, CA, USA). […] Protein levels were analyzed densitometrically using an image analysis system (Image J; National Institute of Health, Bethesda, MD, USA), corrected with values determined on β-actin blots and expressed as relative values compared with the control group. […]

TMPRSS2 = TMPRSS2 mRNA expression in Calu-3, RT real-time PCR; format: cell-based, human; details: 24 hr
Description: To quantify the human gene expression, Calu-3 seeded in a 12-well plate (220,000 cells) were stimulated with 100 uM, 500 uM and 1000 uM Carnitine alone for 24 h. RNA was extracted using TRIzol (Qiagen) as per standard protocol and total RNA was reverse transcribed using SuperScript II RT (Invitrogen). Expression levels of ACE-2 and TMPRSS2 were evaluated by SYBR real-time PCR using gene-specific primers as previously reported (Ma et al., Eye 2020;34:1212). GAPDH was used as an internal normalizer. […] Fold change in expression relative to that in untreated cells was determined using the standard ddCt method.

`C[N+](C)(C)C[C@H](O)CC(=O)[O-]` [L-carnitine] was tested, and the CAT (catalase; Car200: 200 mg/kg oral gavage, no exercise) was 147.19±2.01^de U/mg protein, the CAT (catalase; Ex+Car25: exercise, 25 mg/kg oral gavage) was 144.55±3.21^de U/mg protein and the CAT (catalase; Ex+Car50: exercise, 50 mg/kg oral gavage) was 152.72±2.50^cd U/mg protein. The CAT (catalase; Ex+Car100: exercise, 100 mg/kg oral gavage) was 162.11±1.97^bc U/mg protein, the CAT (catalase; Ex+Car200: exercise, 200 mg/kg oral gavage) was 170.77±2.57^b U/mg protein and the CAT (catalase; Ex+Car400: exercise, 400 mg/kg oral gavage) was 186.10±2.50^a U/mg protein. The “ACE-1 mRNA levels” value (ACE-1; compared to the exercise control, without reaching the control levels) was “increased”, the ACE-1 protein levels (ACE-1; lung, FIG. 6A, significantly lower than the baseline control levels) was “increase” and the “TMPRSS2 mRNA decrease” value (TMPRSS2; Calu-3, 500 uM) was “at least 75%”. For the same compound, the “TMPRSS2 mRNA increase” value (TMPRSS2; Calu-3, between 50-100 uM) was 1.5-4 fold.
